Laboratory results: patent US20260242353A1, “HETEROARYL DERIVATIVES AS DDRs INHIBITORS” (CHIESI FARMACEUTICI S.P.A., priority 2022, published 2026)

Legend:
DDR1 = biological target: T1, DDR1 (Homo sapiens, UniProt Q08345); assay: LanthaScreen Europium Kinase Binding assay, DDR1; conditions: 5 nM DDR1, 20 nM Kinase Tracer 178, 1 h at rt; Ki from IC50 by Cheng-Prusoff; read-out: Ki DDR1
T1 construct: purchased Carna Biosciences
Summary of the method: (§1)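 Compounds were incubated 1 h at rt with 5 nM DDR1 plus 20 nM Kinase Tracer 178, or 5 nM DDR2 plus 10 nM tracer, and 2 nM Eu anti-GST antibody in HEPES pH 7.5 buffer. Read-out was the TR-FRET 665/615 nm ratio. IC50 came from a 4-parameter fit and was converted to Ki by Cheng-Prusoff.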

DDR2 = biological target: T2, DDR2 (Homo sapiens, UniProt Q16832); assay: LanthaScreen Europium Kinase Binding assay, DDR2; conditions: 5 nM DDR2, 10 nM Kinase Tracer 178, 1 h at rt; Ki from IC50 by Cheng-Prusoff; read-out: Ki DDR2
T2 construct: purchased Life Technologies
T2 sequence (Q16832 22-855): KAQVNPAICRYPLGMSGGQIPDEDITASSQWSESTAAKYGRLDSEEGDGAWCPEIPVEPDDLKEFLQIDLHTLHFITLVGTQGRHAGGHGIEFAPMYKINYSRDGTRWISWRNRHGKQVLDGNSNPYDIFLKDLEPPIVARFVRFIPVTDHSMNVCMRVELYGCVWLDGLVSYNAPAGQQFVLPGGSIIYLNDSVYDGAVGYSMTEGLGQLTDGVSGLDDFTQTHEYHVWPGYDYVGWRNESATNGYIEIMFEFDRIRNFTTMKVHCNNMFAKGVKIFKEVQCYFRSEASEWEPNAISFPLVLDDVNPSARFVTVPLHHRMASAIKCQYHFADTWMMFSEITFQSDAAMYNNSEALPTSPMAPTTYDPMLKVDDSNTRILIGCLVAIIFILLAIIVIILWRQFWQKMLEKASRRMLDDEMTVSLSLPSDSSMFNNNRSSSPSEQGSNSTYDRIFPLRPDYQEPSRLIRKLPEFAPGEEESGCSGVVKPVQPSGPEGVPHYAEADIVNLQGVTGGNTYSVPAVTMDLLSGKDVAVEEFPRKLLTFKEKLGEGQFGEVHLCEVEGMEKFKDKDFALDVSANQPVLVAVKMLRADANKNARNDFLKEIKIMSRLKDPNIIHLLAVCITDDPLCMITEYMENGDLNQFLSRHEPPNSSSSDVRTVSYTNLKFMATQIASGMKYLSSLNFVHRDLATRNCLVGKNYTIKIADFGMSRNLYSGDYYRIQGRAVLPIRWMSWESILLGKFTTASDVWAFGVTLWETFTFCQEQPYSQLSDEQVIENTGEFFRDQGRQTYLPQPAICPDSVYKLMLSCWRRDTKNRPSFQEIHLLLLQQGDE
Summary of the method: as §1

T1 sequence (Q08345 19-913): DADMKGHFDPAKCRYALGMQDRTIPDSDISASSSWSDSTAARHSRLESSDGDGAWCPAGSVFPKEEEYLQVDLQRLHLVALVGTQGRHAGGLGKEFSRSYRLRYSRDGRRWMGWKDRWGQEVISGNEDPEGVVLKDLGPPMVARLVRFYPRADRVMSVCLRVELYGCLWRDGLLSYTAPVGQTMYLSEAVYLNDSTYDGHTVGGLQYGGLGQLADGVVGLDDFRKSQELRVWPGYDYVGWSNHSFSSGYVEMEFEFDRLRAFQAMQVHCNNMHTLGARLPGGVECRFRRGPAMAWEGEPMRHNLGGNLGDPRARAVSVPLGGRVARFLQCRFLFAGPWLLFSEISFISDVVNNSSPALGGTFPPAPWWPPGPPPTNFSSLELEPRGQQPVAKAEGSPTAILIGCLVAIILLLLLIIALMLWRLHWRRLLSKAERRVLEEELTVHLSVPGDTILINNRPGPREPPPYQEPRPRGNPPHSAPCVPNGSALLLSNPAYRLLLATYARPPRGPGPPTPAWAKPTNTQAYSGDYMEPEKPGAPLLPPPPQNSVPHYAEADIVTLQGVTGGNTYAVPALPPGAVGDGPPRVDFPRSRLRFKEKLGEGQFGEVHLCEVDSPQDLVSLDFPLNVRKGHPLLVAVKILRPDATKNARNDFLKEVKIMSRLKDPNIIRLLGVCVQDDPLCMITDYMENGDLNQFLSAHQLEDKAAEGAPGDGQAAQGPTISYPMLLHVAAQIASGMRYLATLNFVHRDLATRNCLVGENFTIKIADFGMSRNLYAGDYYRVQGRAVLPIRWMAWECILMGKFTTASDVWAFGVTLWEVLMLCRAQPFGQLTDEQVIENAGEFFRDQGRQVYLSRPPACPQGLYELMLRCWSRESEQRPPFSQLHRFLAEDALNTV

Cc1ccc(C(=O)Nc2cncc(C(F)(F)F)c2)cc1[C@@H]1CCN(c2ncnc3cc(C(=O)N4CCOCC4)sc23)C1 [Example 61, (S)-4-methyl-3-(1-(6-(morpholine-4-carbonyl)thieno[3,2-d]pyrimidin-4-yl)pyrrolidin-3-yl)-N-(5-(trifluoromethyl)pyridin-3-yl)benzamide]
Ki (DDR1): < 5 nM
Ki (DDR2): 5 to 25 nM

Cc1ccc(C(=O)Nc2cncc(C(F)(F)F)c2)cc1[C@@H]1CCN(c2ccnc(C(N)=O)c2)C1 [Example 63, (S)-4-(3-(2-methyl-5-((5-(trifluoromethyl)pyridin-3-yl)carbamoyl)phenyl)pyrrolidin-1-yl)picolinamide]
Ki (DDR1): < 5 nM
Ki (DDR2): < 5 nM

COc1ccc(C(=O)Nc2cncc(C(F)(F)F)c2)cc1C1CCN(c2ccnc(C(N)=O)c2)C1 (stereo not drawn) [Example 64, 4-(3-(2-methoxy-5-((5-(trifluoromethyl)pyridin-3-yl)carbamoyl)phenyl)pyrrolidin-1-yl)picolinamide]
Ki (DDR1): < 5 nM
Ki (DDR2): 5 to 25 nM

Cc1ccc(C(=O)Nc2cncc(C(F)(F)F)c2)cc1[C@@H]1CCN(c2cnn(C)c2C(N)=O)C1 [Example 65, (S)-1-methyl-4-(3-(2-methyl-5-((5-(trifluoromethyl)pyridin-3-yl)carbamoyl)phenyl)pyrrolidin-1-yl)-1H-pyrazole-5-carboxamide]
Ki (DDR1): < 5 nM
Ki (DDR2): 5 to 25 nM

Cc1ccc(C(=O)Nc2cncc(C(F)(F)F)c2)cc1[C@@H]1CCN(c2cccc(C(N)=O)c2)C1 [Example 66, (S)-3-(1-(3-carbamoylphenyl)pyrrolidin-3-yl)-4-methyl-N-(5-(trifluoromethyl)pyridin-3-yl)benzamide]
Ki (DDR1): 5 to 25 nM
Ki (DDR2): 25 to 100 nM

Cc1ccc(C(=O)Nc2cc(C(F)F)ccn2)cc1[C@@H]1CCN(c2cncnc2)C1 [Example 67, (S)-N-(4-(difluoromethyl)pyridin-2-yl)-4-methyl-3-(1-(pyrimidin-5-yl)pyrrolidin-3-yl)benzamide]
Ki (DDR1): < 5 nM
Ki (DDR2): < 5 nM

Cc1ccc(C(=O)Nc2cc(C(F)(F)F)nn2C)cc1[C@@H]1CCN(c2cncnc2)C1 [Example 68, (S)-4-methyl-N-(1-methyl-3-(trifluoromethyl)-1H-pyrazol-5-yl)-3-(1-(pyrimidin-5-yl)pyrrolidin-3-yl)benzamide]
Ki (DDR1): 5 to 25 nM
Ki (DDR2): 5 to 25 nM

CCc1cc(NC(=O)c2ccc(C)c([C@@H]3CCN(c4cncnc4)C3)c2)no1 [Example 69, (S)-N-(5-ethylisoxazol-3-yl)-4-methyl-3-(1-(pyrimidin-5-yl)pyrrolidin-3-yl)benzamide]
Ki (DDR1): < 5 nM
Ki (DDR2): 5 to 25 nM

Cc1ccc(C(=O)Nc2cc(C3CC3)nn2C)cc1[C@@H]1CCN(c2cncnc2)C1 [Example 70, (S)-N-(3-cyclopropyl-1-methyl-1H-pyrazol-5-yl)-4-methyl-3-(1-(pyrimidin-5-yl)pyrrolidin-3-yl)benzamide]
Ki (DDR1): 5 to 25 nM
Ki (DDR2): 25 to 100 nM

Cc1ccc(C(=O)Nc2cncc(C(F)(F)F)c2)cc1[C@@H]1CCN(c2cnc3ccccn23)C1 [Example 71, (S)-3-(1-(imidazo[1,2-a]pyridin-3-yl)pyrrolidin-3-yl)-4-methyl-N-(5-(trifluoromethyl)pyridin-3-yl)benzamide]
Ki (DDR1): < 5 nM
Ki (DDR2): < 5 nM

Cc1ccc(C(=O)Nc2cncc(C(F)(F)F)c2)cc1[C@@H]1CCN(c2cnc3ccc(N4CCN(C)CC4)cn23)C1 [Example 72, (S)-4-methyl-3-(1-(6-(4-methylpiperazin-1-yl)imidazo[1,2-a]pyridin-3-yl)pyrrolidin-3-yl)-N-(5-(trifluoromethyl)pyridin-3-yl)benzamide]
Ki (DDR1): < 5 nM
Ki (DDR2): 5 to 25 nM

Cc1ccc(C(=O)Nc2cncc(C(F)(F)F)c2)cc1[C@@H]1CCN(c2cnc3ccc(N4CCN(CC#N)CC4)cn23)C1 [Example 73, (S)-3-(1-(6-(4-(cyanomethyl)piperazin-1-yl)imidazo[1,2-a]pyridin-3-yl)pyrrolidin-3-yl)-4-methyl-N-(5-(trifluoromethyl)pyridin-3-yl)benzamide]
Ki (DDR1): < 5 nM
Ki (DDR2): 5 to 25 nM

Cc1ccc(C(=O)Nc2cncc(C(F)(F)F)c2)cc1[C@@H]1CCN(c2cncc(OCCN3CCN(C)CC3)c2)C1 [Example 74, (S)-4-methyl-3-(1-(5-(2-(4-methylpiperazin-1-yl)ethoxy)pyridin-3-yl)pyrrolidin-3-yl)-N-(5-(trifluoromethyl)pyridin-3-yl)benzamide]
Ki (DDR1): < 5 nM
Ki (DDR2): 5 to 25 nM

Cc1ccc(C(=O)Nc2cncc(C(F)(F)F)c2)cc1[C@@H]1CCN(c2cnccc2C#N)C1 [Example 75, (S)-3-(1-(4-cyanopyridin-3-yl)pyrrolidin-3-yl)-4-methyl-N-(5-(trifluoromethyl)pyridin-3-yl)benzamide]
Ki (DDR1): < 5 nM
Ki (DDR2): < 5 nM

COc1ccncc1N1CC[C@@H](c2cc(C(=O)Nc3cncc(C(F)(F)F)c3)ccc2C)C1 [Example 76, (S)-3-(1-(4-methoxypyridin-3-yl)pyrrolidin-3-yl)-4-methyl-N-(5-(trifluoromethyl)pyridin-3-yl)benzamide]
Ki (DDR1): < 5 nM
Ki (DDR2): < 5 nM

Cc1ccc(C(=O)Nc2cncc(C(F)(F)F)c2)cc1[C@@H]1CCN(c2cnc3ccc(CN4CCOCC4)cn23)C1 [Example 77, (S)-4-methyl-3-(1-(6-(morpholinomethyl)imidazo [1,2-a]pyridin-3-yl)pyrrolidin-3-yl)-N-(5-(trifluoromethyl)pyridin-3-yl)benzamide]
Ki (DDR1): < 5 nM
Ki (DDR2): 5 to 25 nM

Cc1ccc(C(=O)Nc2cncc(C(F)(F)F)c2)cc1[C@@H]1CCN(c2cnc3ccc(C#N)cn23)C1 [Example 78, (S)-3-(1-(6-cyanoimidazo[1,2-a]pyridin-3-yl)pyrrolidin-3-yl)-4-methyl-N-(5-(trifluoromethyl)pyridin-3-yl)benzamide]
Ki (DDR1): < 5 nM
Ki (DDR2): < 5 nM

COCCOc1cncc(N2CC[C@@H](c3cc(C(=O)Nc4cncc(C(F)(F)F)c4)ccc3C)C2)c1 [Example 79, (S)-3-(1-(5-(2-methoxyethoxy)pyridin-3-yl)pyrrolidin-3-yl)-4-methyl-N-(5-(trifluoromethyl)pyridin-3-yl)benzamide]
Ki (DDR1): < 5 nM
Ki (DDR2): 5 to 25 nM

Cc1ccc(C(=O)Nc2cncc(C(F)(F)F)c2)cc1[C@@H]1CCN(c2cnc3ccc(N4CCN(C)CC4)nn23)C1 [Example 80, (S)-4-methyl-3-(1-(6-(4-methylpiperazin-1-yl)imidazo[1,2-b]pyridazin-3-yl)pyrrolidin-3-yl)-N-(5-(trifluoromethyl)pyridin-3-yl)benzamide]
Ki (DDR1): 5 to 25 nM
Ki (DDR2): 5 to 25 nM

Cc1ccc(C(=O)Nc2cncc(C(F)(F)F)c2)cc1[C@@H]1CCN(c2cncc(OC3CCN(C)CC3)c2)C1 [Example 81, (S)-4-methyl-3-(1-(5-((1-methylpiperidin-4-yl)oxy)pyridin-3-yl)pyrrolidin-3-yl)-N-(5-(trifluoromethyl)pyridin-3-yl)benzamide]
Ki (DDR1): < 5 nM
Ki (DDR2): 5 to 25 nM

Cc1ccc(C(=O)Nc2cncc(C(F)(F)F)c2)cc1[C@@H]1CCN(c2cnn3ccc(N4CCN(C)CC4)nc23)C1 [Example 83, (S)-4-methyl-3-(1-(5-(4-methylpiperazin-1-yl)pyrazolo[1,5-a]pyrimidin-3-yl)pyrrolidin-3-yl)-N-(5-(trifluoromethyl)pyridin-3-yl)benzamide]
Ki (DDR1): < 5 nM
Ki (DDR2): 5 to 25 nM

Cc1ccc(C(=O)Nc2cncc(C(F)(F)F)c2)cc1[C@@H]1CCN(c2cnc3ccc(N4CCOCC4)nn23)C1 [Example 84, (S)-4-methyl-3-(1-(6-morpholinoimidazo[1,2-b]pyridazin-3-yl)pyrrolidin-3-yl)-N-(5-(trifluoromethyl)pyridin-3-yl)benzamide]
Ki (DDR1): < 5 nM
Ki (DDR2): 5 to 25 nM

CC(=O)Nc1cc(N2CC[C@@H](c3cc(C(=O)Nc4cncc(C(F)(F)F)c4)ccc3C)C2)ccn1 [Example 85, (S)-3-(1-(2-acetamidopyridin-4-yl)pyrrolidin-3-yl)-4-methyl-N-(5-(trifluoromethyl)pyridin-3-yl)benzamide]
Ki (DDR1): < 5 nM
Ki (DDR2): 5 to 25 nM

Cc1ccn2ncc(N3CC[C@@H](c4cc(C(=O)Nc5cncc(C(F)(F)F)c5)ccc4C)C3)c2n1 [Example 86, (S)-4-methyl-3-(1-(5-methylpyrazolo[1,5-a]pyrimidin-3-yl)pyrrolidin-3-yl)-N-(5-(trifluoromethyl)pyridin-3-yl)benzamide]
Ki (DDR1): < 5 nM
Ki (DDR2): 5 to 25 nM
